10 molecules from PubChem BioAssay AID180 (DTP/NCI, 2004) can be followed below.

Structures are written as SMILES. Several values for one entry are separate records, joined by “and”; a condition that tells them apart may be missing. Equal entries are not always repeated.

The subject of the test is BDF1 mice, Adenocarcinoma 755 s.c., tumor weight T/C. The test can be described thus: NCI In Vivo Anticancer Drug Screen. Data for tumor model Adenocarcinoma 755 (subcutaneous) in B6D2F1 (BDF1) mice. The conditions noted are these: endpoint: mean tumor weight, higher = larger tumour. An outline of the steps:
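In vivo antitumor screen on a transplantable tumor line. Result equals the measure in compound-treated animals divided by the same measure in vehicle controls.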

Usually T/C stands for the ratio of treated to control. Take `CC(C)OC(=O)C1(N)CCCC1`: the T/C reads like this: (dose: 3.5 mg/kg/injection, schedule: Q01DX011 (ip), vehicle: carboxymethylcellulose (CMC)) 43 % of control; (dose: 7.0 mg/kg/injection, schedule: Q01DX011 (ip), vehicle: carboxymethylcellulose (CMC)) 55 % of control; (dose: 7.0 mg/kg/injection, schedule: Q01DX011 (ip), vehicle: saline) 95 % of control; (dose: 14.0 mg/kg/injection, schedule: Q01DX011 (ip), vehicle: carboxymethylcellulose (CMC)) 55 % of control; (dose: 14.0 mg/kg/injection, schedule: Q01DX011 (ip), vehicle: saline) 96 % of control; (dose: 28.0 mg/kg/injection, schedule: Q01DX011 (ip), vehicle: saline) 34 % of control and 58 % of control. The T/C was 42 % of control (dose: 56.0 mg/kg/injection, schedule: Q01DX011 (ip), vehicle: carboxymethylcellulose (CMC)); 6 % of control (dose: 113.0 mg/kg/injection, schedule: Q01DX011 (ip), vehicle: saline); 10 % of control (dose: 120.0 mg/kg/injection, schedule: Q01DX011 (ip), vehicle: other).
`CC(C)n1cc2c(N)ncnc2n1`: the T/C reads like this: (dose: 12.5 mg/kg/injection, schedule: Q01DX011 (ip), vehicle: methylcellulose (MC)) 55 % of control; (dose: 12.5 mg/kg/injection, schedule: Q01DX011 (ip), vehicle: saline) 74 % of control; (dose: 25.0 mg/kg/injection, schedule: Q01DX011 (ip), vehicle: methylcellulose (MC)) 18 % of control; (dose: 25.0 mg/kg/injection, schedule: Q01DX011 (ip), vehicle: saline) 14 % of control.
With `O=c1[nH]c(=O)n(C2CC(O)C(CO)O2)cc1I` (stereo unspecified), the T/C is, setting by setting: (dose: 31.25 mg/kg/injection, schedule: Q01DX011 (ip), vehicle: carboxymethylcellulose (CMC)) 62 % of control; (dose: 62.5 mg/kg/injection, schedule: Q01DX011 (ip), vehicle: carboxymethylcellulose (CMC)) 65 % of control; (dose: 125.0 mg/kg/injection, schedule: Q01DX011 (ip), vehicle: carboxymethylcellulose (CMC)) 28 % of control and 51 % of control.
Take `c1nc(SC2=NCCN2)c2[nH]cnc2n1`: the T/C is, setting by setting: (dose: 0.22 mg/kg/injection, schedule: Q01DX011 (ip), vehicle: saline) 104 % of control; (dose: 0.45 mg/kg/injection, schedule: Q01DX011 (ip), vehicle: saline) 72 % of control; (dose: 0.45 mg/kg/injection, schedule: Q01DX011 (oral), vehicle: saline) 100 % of control; (dose: 0.65 mg/kg/injection, schedule: Q01DX011 (ip), vehicle: saline) 71 % of control; (dose: 0.9 mg/kg/injection, schedule: Q01DX011 (ip), vehicle: saline) 61 % of control; (dose: 0.9 mg/kg/injection, schedule: Q01DX011 (oral), vehicle: saline) 73 % of control. Moreover, the T/C was 74 % of control (dose: 1.3 mg/kg/injection, schedule: Q01DX011 (ip), vehicle: saline); 15 % of control (dose: 1.8 mg/kg/injection, schedule: Q01DX011 (ip), vehicle: saline); 48 % of control (dose: 1.8 mg/kg/injection, schedule: Q01DX011 (oral), vehicle: saline); 23 % of control (dose: 2.6 mg/kg/injection, schedule: Q01DX011 (ip), vehicle: saline); 4 % of control and 8 % of control (dose: 2.62 mg/kg/injection, schedule: Q01DX011 (ip), vehicle: saline); 21 % of control (dose: 3.6 mg/kg/injection, schedule: Q01DX011 (oral), vehicle: saline). The T/C (dose: 5.25 mg/kg/injection, schedule: Q01DX011 (ip), vehicle: saline) is 2 % of control and 3 % of control; the T/C (dose: 5.25 mg/kg/injection, schedule: Q01DX011 (oral), vehicle: saline) is 9 % of control; the T/C (dose: 8.0 mg/kg/injection, schedule: Q01DX001 (ip), vehicle: saline) was 38 % of control; the T/C (dose: 10.5 mg/kg/injection, schedule: Q01DX011 (ip), vehicle: saline) is 1 % of control and 2 % of control; the T/C (dose: 10.5 mg/kg/injection, schedule: Q01DX011 (oral), vehicle: saline) is 2 % of control; the T/C (dose: 16.0 mg/kg/injection, schedule: Q01DX001 (ip), vehicle: saline) was 57 % of control. The T/C (dose: 20.0 mg/kg/injection, schedule: Q01DX011 (ip), vehicle: saline) is 31 % of control; the T/C (dose: 21.0 mg/kg/injection, schedule: Q01DX011 (ip), vehicle: saline) is 2 % of control; the T/C (dose: 21.0 mg/kg/injection, schedule: Q01DX011 (oral), vehicle: saline) is 1 % of control; the T/C (dose: 30.0 mg/kg/injection, schedule: Q01DX011 (ip), vehicle: saline) is 14 % of control; the T/C (dose: 31.0 mg/kg/injection, schedule: Q01DX001 (ip), vehicle: saline) is 29 % of control; the T/C (dose: 62.0 mg/kg/injection, schedule: Q01DX001 (ip), vehicle: saline) was 38 % of control.
On to `CSc1ncc(Br)c(SCc2ccc(Cl)cc2Cl)n1`, for which the T/C (dose: 15.0 mg/kg/injection, schedule: Q01DX011 (ip), vehicle: methylcellulose (MC)) is 69 % of control; the T/C (dose: 31.0 mg/kg/injection, schedule: Q01DX011 (ip), vehicle: methylcellulose (MC)) is 108 % of control; the T/C (dose: 250.0 mg/kg/injection, schedule: Q01DX011 (ip), vehicle: methylcellulose (MC)) was 60 % of control.
For `CN(C)c1ccc(/C=C\c2ccnc3ccccc23)cc1`, the T/C reads like this: (dose: 3.1 mg/kg/injection, schedule: Q01DX011 (ip), vehicle: water) 100 % of control; (dose: 5.0 mg/kg/injection, schedule: Q01DX011 (ip), vehicle: methylcellulose (MC)) 96 % of control; (dose: 6.25 mg/kg/injection, schedule: Q01DX011 (ip), vehicle: water) 97 % of control; (dose: 10.0 mg/kg/injection, schedule: Q01DX011 (ip), vehicle: methylcellulose (MC)) 96 % of control; (dose: 12.5 mg/kg/injection, schedule: Q01DX011 (ip), vehicle: water) 90 % of control; (dose: 20.0 mg/kg/injection, schedule: Q01DX011 (ip), vehicle: methylcellulose (MC)) 86 % of control. For the same molecule, the T/C was 81 % of control (dose: 25.0 mg/kg/injection, schedule: Q01DX011 (ip), vehicle: water); 55 % of control (dose: 50.0 mg/kg/injection, schedule: Q01DX011 (ip), vehicle: water); 64 % of control (dose: 100.0 mg/kg/injection, schedule: Q01DX011 (ip), vehicle: water).
In the case of `CCCCN(C)N=Nc1ccc(CCC(=O)NN)cc1`, the T/C (dose: 31.0 mg/kg/injection, schedule: Q01DX011 (ip), vehicle: carboxymethylcellulose (CMC)) was 19 % of control.
Turning to `CCC(=O)OCC1OC(n2cnc3c(=S)nc(N)[nH]c32)C(OC(=O)CC)C1OC(=O)CC` (stereo unspecified), the T/C runs as follows: (dose: 1.5 mg/kg/injection, schedule: Q01DX011 (ip), vehicle: carboxymethylcellulose (CMC)) 96 % of control; (dose: 3.0 mg/kg/injection, schedule: Q01DX011 (ip), vehicle: carboxymethylcellulose (CMC)) 17 % of control; (dose: 6.0 mg/kg/injection, schedule: Q01DX011 (ip), vehicle: carboxymethylcellulose (CMC)) 3 % of control; (dose: 12.0 mg/kg/injection, schedule: Q01DX011 (ip), vehicle: carboxymethylcellulose (CMC)) 1 % of control.
With `C/C=C1\CN(C)[C@H]2Cc3c([nH]c4ccccc34)[C@@H](c3cc4[nH]c5c(c4cc3OC)CCN3C[C@H]4C[C@H](CC)[C@H]3[C@@]5(C(=O)OC)C4)C[C@H]1C2C(=O)OC` (stereo partly specified), the T/C reads like this: (dose: 30.0 mg/kg/injection, schedule: Q01DX011 (ip), vehicle: water) 58 % of control; (dose: 35.0 mg/kg/injection, schedule: Q01DX006 (ip), vehicle: water) 57 % of control; (dose: 45.0 mg/kg/injection, schedule: Q01DX011 (ip), vehicle: water) 41 % of control; (dose: 50.0 mg/kg/injection, schedule: Q01DX006 (ip), vehicle: water) 61 % of control and 69 % of control; (dose: 70.0 mg/kg/injection, schedule: Q01DX006 (ip), vehicle: water) 51 % of control; (dose: 80.0 mg/kg/injection, schedule: Q01DX006 (ip), vehicle: water) 54 % of control.
On to `CC(c1ccccc1)c1nc2c([nH]1)c(=O)n(C)c(=O)n2C` (stereo unspecified), for which the T/C is 99 % of control (dose: 40.0 mg/kg/injection, schedule: Q01DX011 (ip), vehicle: methylcellulose (MC)); 86 % of control (dose: 75.0 mg/kg/injection, schedule: Q01DX011 (ip), vehicle: methylcellulose (MC)); 72 % of control (dose: 150.0 mg/kg/injection, schedule: Q01DX011 (ip), vehicle: methylcellulose (MC)).
